Source: US20050033056A1, “Hydroxylated indole derivatives and uses thereof” (priority 2001, published 2005)

Molecular target: T1, CYP1A2 (Homo sapiens, UniProt P05177)
T1 construct: tissue Gentest Corp. (Woburn, Mass.); host or cells: pooled human liver microsomes
T1 sequence (P05177 1-516): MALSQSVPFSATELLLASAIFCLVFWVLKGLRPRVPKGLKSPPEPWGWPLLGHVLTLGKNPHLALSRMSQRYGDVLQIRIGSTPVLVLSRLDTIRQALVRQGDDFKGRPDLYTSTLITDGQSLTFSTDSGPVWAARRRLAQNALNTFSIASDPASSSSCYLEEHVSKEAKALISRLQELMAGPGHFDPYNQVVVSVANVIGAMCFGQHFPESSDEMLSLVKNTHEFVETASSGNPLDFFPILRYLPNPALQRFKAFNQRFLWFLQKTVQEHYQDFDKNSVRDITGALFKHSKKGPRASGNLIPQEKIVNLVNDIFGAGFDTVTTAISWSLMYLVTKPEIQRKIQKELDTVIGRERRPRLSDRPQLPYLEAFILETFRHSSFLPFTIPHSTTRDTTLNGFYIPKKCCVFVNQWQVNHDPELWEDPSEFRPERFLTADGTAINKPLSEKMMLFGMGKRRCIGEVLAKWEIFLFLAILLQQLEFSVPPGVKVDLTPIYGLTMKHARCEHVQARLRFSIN
Experiment: CYP inhibition in HLM: R-warfarin 6-hydroxylation
Type: in vitro ADME
Conditions: 10 or 50 μM
Experimental: The incubations were carried out in test tubes (12.0×75 mm). The incubation mixtures (250 μL) contained 0.5 mg of HLM protein, 50 (CYP1A2 and CYP2E1) or 25 (CYP2C9, CYP2C19, CYP2D6 and CYP3A4) pmol of recombinant human CYPs, Compound 1 (10 or 50 μM), probe substrate (R—, S-warfarin, chlorzoxazone, S-mephenyloin, or bufuralol) at different concentrations, and 0.5 mg of NADPH in 50 mM Tris buffer containing 15 mM MgCl2 (pH 7.4). Compound 1 was added to the reaction mixture 5 minutes prior to the addition of the probe substrate. […]
The quantification was based on the calibration curves, and the quality control (QC) samples were applied to ensure the quality of the experiments. […]
1. CYP1A2/2C9/3A4-mediated warfarin 6-, 7-, 8-, and 10-hydroxylation (Zhang et al., Drug Metab. Dispos. 23:1339-1346, 1995; Rettie et al., Chem. Res. Toxicol. 5:54-59, 1992; Brian et al., Biochemistry 29:11280-11292, 1990): Hewlett Packard 1100 HPLC system (Waldbronn, Germany) comprised a binary pump, an autosampler, a column compartment unit, a photodiode array detector (PDA), and a fluorescence detector. […] The warfarin metabolites, 6-, 8-, and 10-hydroxywarfarin, were monitored by UV at 313 nm, and 7-hydroxywarfarin by fluorescence at Ex320 nm/Em380 nm. […]

Compound: CNC(=O)Cc1ccc2ccn(C3CCN(CCc4ccccc4F)CC3)c2c1 [Compound 1, N-methyl-[1-[1-(2-fluorophenethyl)piperidine-4-yl]-1H-indol-6-yl] acetamide]
- inhibitory effect on CYP1A2 activity (in words): no inhibitory effect
